Tests used:
GLP1R [1] = target: T1, GLP1R (Homo sapiens, UniProt P43220); assay: GLP1R cAMP assay (HTRF cAMP detection, agonist activity); assay type: cell-based; set-up: host or cells: Flp-In-293; conditions: Flp-In-293-GLP1R cells, 30 min at 37° C., read-out: EC50 (nM) Assay 1
Method: GLP1R-mediated agonist activity was determined with a cell-based functional assay utilizing an HTRF (Homogeneous Time-Resolved Fluorescene) cAMP detection kit that measures CAMP levels in the cell. Reagents and equipment used in the assay are listed below, followed by the protocol.
• 1) Cell Line: Flp-In-293-GLP1R (constructed by Pharmaron Beijing Co., Ltd) • 2) Complete Medium: DMEM+10% FBS+1×Penicillin-Streptomycin+200 μg/mL HB • 3) Assay Buffer: 1×HBSS+20 mM HEPES+0.1% BSA+500 μM IBMX
• a) Seed Flpin-293-GLP1R cells at 20,000 cells/well into 384 well assay plate (6007680-50, PE) using complete medium. • b) Prepare 4×compound working solution with assay buffer. • c) Add 5 μL 4×compound working solution into cell plate, incubate 30 min at 37° C. • d) Dilute Eu-cAMP tracer (1/50) with lysis buffer and add 10 μl/well to assay plate. • e) Dilute Ulight-anti-cAMP (1/150) with lysis buffer and add 10 μl/well to assay plate. • f) Incubate 1 h at RT. • g) Read the plate at wavelengths of 665 nm and 615 nm on Envision 2105 plate reader.
• 3.1% Activity is calculated as follow:
% Activity=100−(Signalcmpd−SignalAve_PC)/(SignalAve_VC−SignalAve_PC)×100. • 3.2 Calculate EC50 and Plot effect-dose curve of cmpds:
Y=Bottom+(Top−Bottom)/(1+10^((Log EC50−X)*Hill Slope)) • X: log of agonist concentration; Y: % Activity.
Target sequence in this assay (P43220 24-463, species assumed): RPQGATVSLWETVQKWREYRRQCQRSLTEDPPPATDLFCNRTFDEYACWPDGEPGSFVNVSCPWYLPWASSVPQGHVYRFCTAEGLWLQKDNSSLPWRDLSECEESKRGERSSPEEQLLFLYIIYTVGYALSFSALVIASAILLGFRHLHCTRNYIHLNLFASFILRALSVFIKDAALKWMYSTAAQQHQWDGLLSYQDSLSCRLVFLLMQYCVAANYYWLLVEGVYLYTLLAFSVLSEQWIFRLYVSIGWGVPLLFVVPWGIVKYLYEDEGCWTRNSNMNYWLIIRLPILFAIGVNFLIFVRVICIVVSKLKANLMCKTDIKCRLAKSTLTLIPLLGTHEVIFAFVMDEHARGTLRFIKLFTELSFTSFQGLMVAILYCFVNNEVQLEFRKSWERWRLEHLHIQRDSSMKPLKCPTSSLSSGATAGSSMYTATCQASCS

GLP1R [2] = target: T1, GLP1R; assay: GLP1R/CRE-Luc luciferase reporter gene assay (agonist activity); assay type: cell-based; set-up: host or cells: HKE293 (so in the source); conditions: HKE293-Human GLP1R/CRE-luc cells, 5 h at 37° C., read-out: EC50 (nM) Assay 2
Target sequence in this assay (P43220 24-463): as the sequence (P43220 24-463, species assumed) above

Row | SMILES | EC50 (GLP1R [1]) [nM] | EC50 (GLP1R [2]) [nM]
1 | N#Cc1ccc(COc2cccc(C34CCN(Cc5nc6ccc(C(=O)O)cc6n5C[C@@H]5CCO5)CC3C4)n2)c(F)c1 (stereo partly drawn) [Compound 1-1, 2-[(6-{6-[(4-cyano-2-fluorophenyl)methoxy]pyridin-2-yl}-3-azabicyclo[4.1.0]heptan-3-yl)methyl]-3-[(2S)-oxetan-2-ylmethyl]-1,3-benzodiazole-5-carboxylic acid] | 0.029 | 80.8
2 | N#Cc1ccc(COc2cccc(C34CCN(Cc5nc6ccc(C(=O)O)cc6n5C[C@@H]5CCO5)CC3C4)n2)c(F)c1 (single isomer, unassigned) [Compound 1-1-A] | 0.028 | 48.7
3 | O=C(O)c1ccc2nc(CN3CCC4(c5cccc(OCc6ccc(C(F)(F)F)cc6F)n5)CC4C3)n(C[C@@H]3CCO3)c2c1 (stereo partly drawn) [Compound 1-8, 2-{[6-(6-{[2-fluoro-4-(trifluoromethyl)phenyl]methoxy}pyridin-2-yl)-3-azabicyclo[4.1.0]heptan-3-yl]methyl}-3-[(2S)-oxetan-2-ylmethyl]-1,3-benzodiazole-5-carboxylic acid] | 0.035 | 108
4 | O=C(O)c1ccc2nc(CN3CCC4(c5cccc(OCc6ccc(Cl)cc6F)n5)CC4C3)n(C[C@@H]3CCO3)c2c1 (stereo partly drawn) [Compound 1-5, 2-((6-(6-((4-chloro-2-fluorobenzyl)oxy)pyridin-2-yl)-3-azabicyclo[4.1.0]heptan-3-yl)methyl)-1-(((S)-oxetan-2-yl)methyl)-1H-benzo[d]imidazole-6-carboxylic acid] | 0.03 | 100
5 | N#Cc1ccc(COc2cccc(C34CCN(Cc5nc6c(F)cc(C(=O)O)cc6n5C[C@@H]5CCO5)CC3C4)n2)c(F)c1 (stereo partly drawn) [Compound 1-10, 2-((6-(6-((4-cyano-2-fluorobenzyl)oxy)pyridin-2-yl)-3-azabicyclo[4.1.0]heptan-3-yl)methyl)-4-fluoro-1-(((S)-oxetan-2-yl)methyl)-1H-benzo[d]imidazole-6-carboxylic acid] | 0.047 | 31.2
6 | N#Cc1ccc(COc2cccc(C34CCN(Cc5nc6c(F)cc(C(=O)O)cc6n5C[C@@H]5CCO5)CC3C4)n2)c(F)c1 (single isomer, unassigned) [Compound 1-10-B] | 0.021 | 47.6
7 | N#Cc1ccc(COc2cccc(C34CCN(Cc5nc6c(F)cc(C(=O)O)cc6n5C[C@@H]5CCO5)CC3C4)n2)c(F)c1 (single isomer, unassigned) [Compound 1-10-A] | 0.009 | 19.3
8 | N#Cc1ccc(COc2cccc(N3C4CCC3CN(Cc3nc5ccc(C(=O)O)cc5n3C[C@@H]3CCO3)C4)n2)c(F)c1 [Compound 2-29, 2-((−8-(6-((4-cyano-2-fluorobenzyl)oxy)pyridin-2-yl)-3,8-diazabicyclo[3.2.1]octan-3-yl)methyl)-1-(((S)-oxetan-2-yl)methyl)-1H-benzo[d]imidazole-6-carboxylic acid] | 0.287 | > 1000
9 | N#Cc1ccc(COc2cccc(C34CCN(Cc5nc6ccc(C(=O)O)cc6n5C[C@@H]5CCO5)CC3C4)n2)c(F)c1 (single isomer, unassigned) [Compound 1-1-B] | 0.035 | 84.9
10 | COc1cc(C(=O)O)cc2c1nc(CN1CCC3(c4nccc(OCc5ccc(C#N)cc5OC(C)C)n4)CC3C1)n2C[C@@H]1CCO1 (stereo partly drawn) [Compound 1-40, 2-((6-(4-((4-cyano-2-isopropoxybenzyl)oxy)pyrimidin-2-yl)-3-azabicyclo[4.1.0]heptan-3-yl)methyl)-4-methoxy-1-(((S)-oxetan-2-yl)methyl)-1H-benzo[d]imidazole-6-carboxylic acid] |  | 22.1
11 | COc1cc(C#N)ccc1COc1ccnc(C23CCN(Cc4nc5c(OC)cc(C(=O)O)cc5n4C[C@@H]4CCO4)CC2C3)n1 (single isomer, unassigned) [Compound 1-38-B] |  | 0.28
12 | N#Cc1ccc(COc2ccnc(N3C4CCC3CN(Cc3nc5ccc(C(=O)O)cc5n3C[C@@H]3CCO3)C4)c2)c(F)c1 [Compound 2-34, 2-((−8-(4-((4-cyano-2-fluorobenzyl)oxy)pyridin-2-yl)-3,8-diazabicyclo[3.2.1]octan-3-yl)methyl)-1-(((S)-oxetan-2-yl)methyl)-1H-benzo[d]imidazole-6-carboxylic acid] | > 4 | > 1000
13 | N#Cc1ccc(COc2cccc(N3C4CCC3CN(Cc3nc5ccc(C(=O)O)cc5n3C[C@@H]3CCO3)C4)c2)c(F)c1 [Compound 2-35, 2-((−8-(3-((4-cyano-2-fluorobenzyl)oxy)phenyl)-3,8-diazabicyclo[3.2.1]octan-3-yl)methyl)-1-(((S)-oxetan-2-yl)methyl)-1H-benzo[d]imidazole-6-carboxylic acid] | 2.79 | > 1000

— patent US20240382471A1, “GLUCAGON-LIKE PEPTIDE-1 RECEPTOR MODULATORS AND USES THEREOF” (HEPAGENE THERAPEUTICS (HK) LIMITED, priority 2021, published 2024)
